Test results taken from US6461997B1, “Triazole sulfones having herbicidal activity” (Monsanto Technology LLC, priority 1999, dated 2002).

Assays:
SOLNI (black nightshade) = test: Pre-emergence herbicidal activity, warm season; type: in vivo, Solanum nigrum; conditions: GR80 = lowest tested rate (300, 100, 30, 10 g/ha) with 80% or greater inhibition; approx. 14 days after treating; 30/21° C.
Outline: (§1)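 Seeds sown in sterilised fertilised topsoil received surface-applied compound in 50:50 acetone/water, typically at 300, 100, 30 and 10 g/ha, then greenhouse-grown at 30/21° C (warm-season species) or 18/13° C (cool-season species). Percent inhibition versus untreated plants was scored at about 14 days, giving GR80; an asterisk marks activity short of 80% at the top rate.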

[1] = system: GALAP (catchweed bedstraw); test: Pre-emergence herbicidal activity, cool season; type: in vivo, Galium aparine; conditions: lowest tested rate with 80% or greater inhibition; rates 300, 100, 30, 10 g/ha; about 14 days
Outline: as §1

SINAR (wild mustard) [2] = test: Pre-emergence herbicidal activity, cool season; type: in vivo, Sinapis arvensis; conditions: lowest tested rate with 80% or greater inhibition; rates 300, 100, 30, 10 g/ha; about 14 days
Outline: as §1

SASKR (russian thistle) = test: Pre-emergence herbicidal activity, cool season; type: in vivo, Salsola kali; conditions: lowest tested rate with 80% or greater inhibition; rates 300, 100, 30, 10 g/ha; about 14 days
Outline: as §1

[3] = system: LAMPU (purple deadnettle); test: Pre-emergence herbicidal activity, cool season; type: in vivo, Lamium purpureum; conditions: lowest tested rate with 80% or greater inhibition; rates 300, 100, 30, 10 g/ha; about 14 days
Outline: as §1

AMARE (redroot pigweed) = test: Pre-plant incorporated (PPI) herbicidal activity, warm season; type: in vivo, Amaranthus retroflexus; conditions: for PPI activity (GR80) AMARE: pre-plant incorporated, GR80 = lowest tested rate with 80% or greater inhibition, approx. 14 days after treating, 30/21° C.
Outline: (§2)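 Seeds were sown on compacted topsoil and covered with soil that had been sprayed with compound in organic solvent and mixed through. Pots got 0.64 cm overhead irrigation, then greenhouse at 30/21 °C (warm-season species) or 18/13 °C (cool-season species) day/night. Percent inhibition versus untreated plants was scored about 14 days after planting.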

DATST (jimsonweed) = test: as above; type: in vivo, Datura stramonium; conditions: for PPI activity (GR80) DATST: pre-plant incorporated, GR80 = lowest tested rate with 80% or greater inhibition, approx. 14 days after treating, 30/21° C.
Outline: as §2

[4] = system: PANMI (wild proso millet); test: as above; type: in vivo, Panicum miliaceum; conditions: for PPI activity GR80, PANMI: pre-plant incorporated, lowest tested rate with 80% or greater inhibition, about 14 days
Outline: as §2

PANDI (fall panicum) = test: as above; type: in vivo, Panicum dichotomiflorum; conditions: pre-plant incorporated; lowest tested rate with 80% or greater inhibition; about 14 days
Outline: as §2

POLCO (wild buckwheat) = test: Pre-plant incorporated (PPI) herbicidal activity, cool season; type: in vivo, Polygonum convolvulus; conditions: pre-plant incorporated; lowest tested rate with 80% or greater inhibition; about 14 days
Outline: as §2

SINAR (wild mustard) [5] = test: as above; type: in vivo, Sinapis arvensis; conditions: for PPI activity GR80, SINAR: pre-plant incorporated, lowest tested rate with 80% or greater inhibition, about 14 days
Outline: as §2

ALOMY (blackgrass) = test: as above; type: in vivo, Alopecurus myosuroides; conditions: for PPI activity GR80, ALOMY: pre-plant incorporated, lowest tested rate with 80% or greater inhibition, about 14 days
Outline: as §2

BROTE (downy brome) = test: as above; type: in vivo, Bromus tectorum; conditions: for PPI activity GR80, BROTE: pre-plant incorporated, lowest tested rate with 80% or greater inhibition, about 14 days
Outline: as §2

[6] = weed, PPI application, 100 g/ha
[7] = weed, PPI application, 300 g/ha
[8] = weed, PPI application, 900 g/ha

C=CCC(F)(F)S(=O)(=O)c1ncn(C(=O)N(CC)CC)n1 [Example 17, 1-(N,N-diethylcarbamoyl)-3-[(1,1-difluoro-3-butenyl)sulfonyl]-1,2,4-triazole]
Pre-emergence activity (GR80) SOLNI (SOLNI (black nightshade)): 100 g/ha
Pre-emergence activity GR80, GALAP [1]: 100 g/ha
Pre-emergence activity GR80, SINAR (SINAR (wild mustard) [2]): 100 g/ha
Pre-emergence activity GR80, SASKR (SASKR (russian thistle)): 100 g/ha
Pre-emergence activity GR80, LAMPU [3]: 100 g/ha
inhibition at 10 g/ha (AMARE (redroot pigweed); Amaranthus retroflexus, PPI application, 10 g/ha, read-out: Percent inhibition AMARE): 60%
inhibition at 30 g/ha (AMARE (redroot pigweed); Amaranthus retroflexus, PPI application, 30 g/ha, read-out: Percent inhibition AMARE): 95%
inhibition at 100 g/ha (AMARE (redroot pigweed); Amaranthus retroflexus, PPI application, 100 g/ha, read-out: Percent inhibition AMARE): 100%
inhibition at 300 g/ha (AMARE (redroot pigweed); Amaranthus retroflexus, PPI application, 300 g/ha, read-out: Percent inhibition AMARE): 100%
inhibition at 900 g/ha (AMARE (redroot pigweed); Amaranthus retroflexus, PPI application, 900 g/ha, read-out: Percent inhibition AMARE): 100%
PPI activity (GR80) AMARE (AMARE (redroot pigweed)): 10 g/ha
inhibition at 10 g/ha (DATST (jimsonweed); Datura stramonium, PPI application, 10 g/ha, read-out: Percent inhibition DATST): 0%
inhibition at 30 g/ha (DATST (jimsonweed); Datura stramonium, PPI application, 30 g/ha, read-out: Percent inhibition DATST): 0%
inhibition at 100 g/ha (DATST (jimsonweed); Datura stramonium, PPI application, 100 g/ha, read-out: Percent inhibition DATST): 30%
inhibition at 300 g/ha (DATST (jimsonweed); Datura stramonium, PPI application, 300 g/ha, read-out: Percent inhibition DATST): 60%
inhibition at 900 g/ha (DATST (jimsonweed); Datura stramonium, PPI application, 900 g/ha, read-out: Percent inhibition DATST): 99%
PPI activity (GR80) DATST (DATST (jimsonweed)): 300 g/ha
inhibition at 10 g/ha ([4]; Panicum miliaceum, PPI application, 10 g/ha, read-out: Percent inhibition PANMI): 60%
inhibition at 30 g/ha ([4]; Panicum miliaceum, PPI application, 30 g/ha, read-out: Percent inhibition PANMI): 100%
inhibition at 100 g/ha ([4]; Panicum miliaceum, PPI application, 100 g/ha, read-out: Percent inhibition PANMI): 100%
inhibition at 300 g/ha ([4]; Panicum miliaceum, PPI application, 300 g/ha, read-out: Percent inhibition PANMI): 100%
inhibition at 900 g/ha ([4]; Panicum miliaceum, PPI application, 900 g/ha, read-out: Percent inhibition PANMI): 100%
PPI activity GR80, PANMI [4]: 10 g/ha
PPI activity GR80, PANDI (PANDI (fall panicum)): 300 g/ha
PPI activity GR80, POLCO (POLCO (wild buckwheat)): 100 g/ha
inhibition at 10 g/ha (SINAR (wild mustard) [5]; Brassica, weed, PPI application, 10 g/ha, read-out: Percent inhibition SINAR): 70%
inhibition at 30 g/ha (SINAR (wild mustard) [5]; Brassica, weed, PPI application, 30 g/ha, read-out: Percent inhibition SINAR): 70%
inhibition at 100 g/ha (SINAR (wild mustard) [5]; Brassica, weed, PPI application, 100 g/ha, read-out: Percent inhibition SINAR): 90%
inhibition at 300 g/ha (SINAR (wild mustard) [5]; Brassica, weed, PPI application, 300 g/ha, read-out: Percent inhibition SINAR): 100%
inhibition at 900 g/ha (SINAR (wild mustard) [5]; Brassica, weed, PPI application, 900 g/ha, read-out: Percent inhibition SINAR): 100%
PPI activity GR80, SINAR (SINAR (wild mustard) [5]): 30 g/ha
inhibition at 10 g/ha (ALOMY (blackgrass); Alopecurus myosuroides, weed, PPI application, 10 g/ha, read-out: Percent inhibition ALOMY): 50%
inhibition at 30 g/ha (ALOMY (blackgrass); Alopecurus myosuroides, weed, PPI application, 30 g/ha, read-out: Percent inhibition ALOMY): 60%
inhibition at 100 g/ha (ALOMY (blackgrass); Alopecurus myosuroides, weed, PPI application, 100 g/ha, read-out: Percent inhibition ALOMY): 100%
inhibition at 300 g/ha (ALOMY (blackgrass); Alopecurus myosuroides, weed, PPI application, 300 g/ha, read-out: Percent inhibition ALOMY): 90%
inhibition at 900 g/ha (ALOMY (blackgrass); Alopecurus myosuroides, weed, PPI application, 900 g/ha, read-out: Percent inhibition ALOMY): 100%
PPI activity GR80, ALOMY (ALOMY (blackgrass)): 30 g/ha
inhibition at 10 g/ha (BROTE (downy brome); Bromus tectorum, weed, PPI application, 10 g/ha, read-out: Percent inhibition BROTE): 0%
inhibition at 30 g/ha (BROTE (downy brome); Bromus tectorum, weed, PPI application, 30 g/ha, read-out: Percent inhibition BROTE): 0%
inhibition at 100 g/ha (BROTE (downy brome); Bromus tectorum, weed, PPI application, 100 g/ha, read-out: Percent inhibition BROTE): 20%
inhibition at 300 g/ha (BROTE (downy brome); Bromus tectorum, weed, PPI application, 300 g/ha, read-out: Percent inhibition BROTE): 30%
inhibition at 900 g/ha (BROTE (downy brome); Bromus tectorum, weed, PPI application, 900 g/ha, read-out: Percent inhibition BROTE): 95%
PPI activity GR80, BROTE (BROTE (downy brome)): 100 g/ha

C=C(CC(F)(F)S(=O)(=O)c1ncn(C(=O)N(CC)CC)n1)C[Si](C)(C)C [Example 20]
Pre-emergence activity (GR80) SOLNI (SOLNI (black nightshade)): 100 g/ha
Pre-emergence activity GR80, GALAP [1]: [empty]
Pre-emergence activity GR80, SINAR (SINAR (wild mustard) [2]): [empty]
Pre-emergence activity GR80, SASKR (SASKR (russian thistle)): [empty]
Pre-emergence activity GR80, LAMPU [3]: 100 g/ha
Percent inhibition AMARE (AMARE (redroot pigweed); PPI application, 10 g/ha): 0%
Percent inhibition AMARE (AMARE (redroot pigweed); PPI application, 30 g/ha): 0%
Percent inhibition AMARE (AMARE (redroot pigweed); PPI application, 100 g/ha): 50%
Percent inhibition AMARE (AMARE (redroot pigweed); PPI application, 300 g/ha): 100%
Percent inhibition AMARE (AMARE (redroot pigweed); PPI application, 900 g/ha): 100%
PPI activity (GR80) AMARE (AMARE (redroot pigweed)): 300 g/ha
Percent inhibition DATST (DATST (jimsonweed); PPI application, 10 g/ha): 0%
Percent inhibition DATST (DATST (jimsonweed); PPI application, 30 g/ha): 0%
Percent inhibition DATST (DATST (jimsonweed); PPI application, 100 g/ha): 0%
Percent inhibition DATST (DATST (jimsonweed); PPI application, 300 g/ha): 20%
Percent inhibition DATST (DATST (jimsonweed); PPI application, 900 g/ha): 60%
PPI activity (GR80) DATST (DATST (jimsonweed)): 300 g/ha
Percent inhibition PANMI ([4]; PPI application, 10 g/ha): 0%
Percent inhibition PANMI ([4]; PPI application, 30 g/ha): 20%
Percent inhibition PANMI ([4]; PPI application, 100 g/ha): 100%
Percent inhibition PANMI ([4]; PPI application, 300 g/ha): 65%
Percent inhibition PANMI ([4]; PPI application, 900 g/ha): 100%
PPI activity GR80, PANMI [4]: 100 g/ha
PPI activity GR80, PANDI (PANDI (fall panicum)): 100 g/ha
PPI activity GR80, POLCO (POLCO (wild buckwheat)): * (activity observed, at least at highest rate, but <80% inhibition)
PPI activity GR80, SINAR (SINAR (wild mustard) [5]): * (activity observed, at least at highest rate, but <80% inhibition)
Percent inhibition SINAR (SINAR (wild mustard) [5]; weed, PPI application, 10 g/ha): 30%
Percent inhibition SINAR (SINAR (wild mustard) [5]; weed, PPI application, 30 g/ha): 80%
Percent inhibition SINAR (SINAR (wild mustard) [5]; [6]): 80%
Percent inhibition SINAR (SINAR (wild mustard) [5]; [7]): 60%
Percent inhibition SINAR (SINAR (wild mustard) [5]; [8]): 70%
PPI activity GR80, ALOMY (ALOMY (blackgrass)): 100 g/ha
Percent inhibition ALOMY (ALOMY (blackgrass); weed, PPI application, 10 g/ha): 0%
Percent inhibition ALOMY (ALOMY (blackgrass); weed, PPI application, 30 g/ha): 0%
Percent inhibition ALOMY (ALOMY (blackgrass); [6]): 20%
Percent inhibition ALOMY (ALOMY (blackgrass); [7]): 50%
Percent inhibition ALOMY (ALOMY (blackgrass); [8]): 100%
PPI activity GR80, BROTE (BROTE (downy brome)): 300 g/ha
Percent inhibition BROTE (BROTE (downy brome); weed, PPI application, 10 g/ha): 0%
Percent inhibition BROTE (BROTE (downy brome); weed, PPI application, 30 g/ha): 0%
Percent inhibition BROTE (BROTE (downy brome); [6]): 0%
Percent inhibition BROTE (BROTE (downy brome); [7]): 40%
Percent inhibition BROTE (BROTE (downy brome); [8]): 50%
